Reference: patent publication US20110288082A1, “METHODS AND COMPOSITIONS FOR INHIBITION OF THE TRANSITIONAL ENDOPLASMIC RETICULUM ATPASE” (priority 2010, published 2011)
Like-named read-outs stand apart in the source and are kept apart here.

Legend:
p97 = p97 (Homo sapiens, UniProt P55072); experiment: p97 ATPase assay (Kinase Glo Plus; biomol green for compounds that interfere with luciferase); type: biochemical
Procedure: Assay Buffer (20 μL of 2.5× concentration, where 1×=50 mM Tris pH 7.4, 20 mM MgCl2, 1 mM EDTA, 0.5 mM TCEP) was dispensed into each well of a 96 well plate. Purified p97 (25 μL of 50 μM) was diluted in 975 μL, of 1× Assay Buffer and 10 μL was dispensed in each well. Test compound (10 μL) or 5% DMSO (10 μL) was then added to each well and the plate was incubated at room temperature for 10 min. The ATPase assay was carried out by adding to each well 10 μL of 500 μM ATP (pH 7.5), incubating at room temperature for 60 min, and then adding 50 μL Kinase Glo Plus reagent (Promega) followed by a final 10 min incubation at room temperature in the dark. Luminescence was read on an Analyst AD (Molecular Devices). Compounds were assayed at a range of concentrations (0, 0.048, 0.24, 1.2, 6, 30 μM) in triplicate. The percent of remaining activity for each reaction was calculated using the following mathematical expression: ((Test Compound-High Control)/(Low Control-High Control))*100. Test_Compound is defined as wells containing test compound, Low_Control is defined as wells containing DMSO, High_Control is defined as wells containing no p97 protein. […] The result was expressed as mean +/− standard error. For assays with Myriad 12 and 19, 100 μL of biomol green reagent (Enzo Life Sciences) was added to each well instead of kinase Glo Plus (Promega) and absorbance at 630 nm was measured. This was done because these compounds interfered with luciferase activity. […]

[1] = system: p97-dependent Ub^G76V-GFP degradation in HeLa cells; experiment: Ub^G76V-GFP degradation (turn-over) assay; type: cell-based, human; settings: Homo sapiens, HeLa
Procedure: Ub^G76V-GFP Degradation Assay
Two GFP images with 100 ms exposure time per well were acquired and the average GFP intensity per area of a HeLa cell was determined by using MetaXpress software. Mean GFP intensity of 300-500 cells was calculated using Excel. Normalized GFP intensity was calculated using the following formula: (Test compound−Background)/(Basal GFP intensity—Background). Where: Test compound is defined as Mean GFP intensity of Ub^G76V-GFP-expressing cells treated with the test compound. Background is defined as background GFP intensity of HeLa cells. Basal GFP intensity is defined as mean GFP intensity of Ub^G76V-GFP-expressing cells treated with DMSO. […] The percent of remaining k for each compound is calculated using the following formula: (Test compound/DMSO control)*100. Where: Test_compound is defined as k determined from wells containing test compound, DMSO control is defined as k determined from wells containing DMSO.

[2] = purified p97, ATP, 60 min room temperature, mean +/- standard error
[3] = read-out: IC50 (μM) Ub^G76V-GFP turn over, Ub^G76V-GFP-expressing HeLa cells, degradation rate constant k from 90 to 180 min, mean +/- standard error
[4] = read-out: IC50 (μM) Ub^G76V-GFP turn over, p97-dependent Ub^G76V-GFP degradation turn-over assay

Chain of p97 (P55072 2-806 limits assumed): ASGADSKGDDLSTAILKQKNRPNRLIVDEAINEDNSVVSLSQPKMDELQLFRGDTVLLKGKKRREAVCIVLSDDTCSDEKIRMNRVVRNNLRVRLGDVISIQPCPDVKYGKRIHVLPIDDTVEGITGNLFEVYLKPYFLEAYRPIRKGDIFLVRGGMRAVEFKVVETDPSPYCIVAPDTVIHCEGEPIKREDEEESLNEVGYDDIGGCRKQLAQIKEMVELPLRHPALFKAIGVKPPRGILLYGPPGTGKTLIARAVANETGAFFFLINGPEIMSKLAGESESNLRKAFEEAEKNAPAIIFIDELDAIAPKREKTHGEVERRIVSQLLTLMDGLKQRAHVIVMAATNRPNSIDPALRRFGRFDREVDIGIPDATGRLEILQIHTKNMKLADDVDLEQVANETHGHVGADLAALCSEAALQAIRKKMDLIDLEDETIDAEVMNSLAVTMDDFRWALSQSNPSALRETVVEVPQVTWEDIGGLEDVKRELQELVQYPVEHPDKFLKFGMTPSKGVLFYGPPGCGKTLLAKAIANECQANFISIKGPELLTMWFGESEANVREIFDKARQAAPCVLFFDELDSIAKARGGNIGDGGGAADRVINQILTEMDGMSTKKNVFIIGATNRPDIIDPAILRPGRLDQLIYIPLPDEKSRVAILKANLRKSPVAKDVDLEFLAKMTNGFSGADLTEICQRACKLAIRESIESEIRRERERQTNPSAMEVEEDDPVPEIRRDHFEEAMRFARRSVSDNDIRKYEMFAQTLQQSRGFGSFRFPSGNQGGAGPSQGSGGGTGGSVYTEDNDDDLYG

Row | Compound | IC50 (p97; [2]) | IC50 [1, 3] | IC50 (p97; p97 ATPase assay) | IC50 [1, 4]
1 | COc1ccccc1Nc1nc(NCc2ccccc2)c2ccccc2n1 [II-11] | 2.2 ± 0.9 µM | 11 ± 3 µM | – | –
2 | Cc1cccc(Nc2nc(NCc3ccccc3)c3ccccc3n2)c1 [II-12] | 1.7 ± 0.5 µM | 3 ± 0.7 µM | – | –
3 | Brc1cccc(Nc2nc(NCc3ccccc3)c3ccccc3n2)c1 [II-15] | 2.5 ± 0.5 µM | 4.3 ± 0.8 µM | – | –
4 | COc1cccc(Nc2nc(NCc3ccccc3)c3ccccc3n2)c1 [II-16] | 2.5 ± 0.2 µM | 4.3 ± 0.7 µM | – | –
5 | Clc1ccc(Nc2nc(NCc3ccccc3)c3ccccc3n2)cc1Cl [II-17] | 8.1 ± 2.6 µM | 12 ± 2 µM | – | –
6 | Fc1ccc(Cl)cc1Nc1nc(NCc2ccccc2)c2ccccc2n1 [II-18] | 13 ± 3 µM | 13 ± 2 µM | – | –
7 | Clc1cc(Cl)cc(Nc2nc(NCc3ccccc3)c3ccccc3n2)c1 [II-19] | 8.2 ± 0.3 µM | 13 ± 1 µM | – | –
8 | FC(F)(F)c1cccc(Nc2nc(NCc3ccccc3)c3ccccc3n2)c1 [II-20] | – | – | 50 ± 16 µM | 21 ± 1 µM
9 | Ic1cccc(Nc2nc(NCc3ccccc3)c3ccccc3n2)c1 [II-21] | 5.2 ± 1.9 µM | 36 ± 4 µM | – | –
10 | O=[N+]([O-])c1cccc(Nc2nc(NCc3ccccc3)c3ccccc3n2)c1 [II-22] | 5.2 ± 0.5 µM | 19 ± 2 µM | – | –
11 | Cc1ccc(CNc2nc(Nc3cccc(Cl)c3)nc3ccccc23)cc1 [III-1] | 1.4 ± 0.3 µM | 12 ± 2 µM | – | –
12 | Clc1ccc(CNc2nc(Nc3cccc(Cl)c3)nc3ccccc23)cc1 [III-2] | 2.8 ± 0.9 µM | 7.6 ± 2.4 µM | – | –
13 | Fc1ccc(CNc2nc(Nc3cccc(Cl)c3)nc3ccccc23)cc1 [III-3] | 1.5 ± 0.3 µM | 5.7 ± 1.3 µM | – | –
14 | Clc1cccc(Nc2nc(NCc3ccc(Br)cc3)c3ccccc3n2)c1 [III-4] | 7.4 ± 2 µM | 10 ± 3 µM | – | –
15 | COc1ccc(CNc2nc(Nc3cccc(Cl)c3)nc3ccccc23)cc1 [III-5] | 2.3 ± 0.6 µM | 11 ± 4 µM | – | –
16 | Cc1ccccc1CNc1nc(Nc2cccc(Cl)c2)nc2ccccc12 [III-6] | 4.2 ± 1.1 µM | 11 ± 3 µM | – | –
17 | Clc1cccc(Nc2nc(NCc3ccccc3Cl)c3ccccc3n2)c1 [III-7] | 4.7 ± 1.4 µM | 18 ± 5 µM | – | –
18 | Fc1ccccc1CNc1nc(Nc2cccc(Cl)c2)nc2ccccc12 [III-8] | 1.8 ± 0.5 µM | 7.8 ± 2.1 µM | – | –
19 | Clc1cccc(Nc2nc(NCc3ccccc3Br)c3ccccc3n2)c1 [III-9] | 4 ± 1.7 µM | 12 ± 5 µM | – | –
20 | COc1ccccc1CNc1nc(Nc2cccc(Cl)c2)nc2ccccc12 [III-10] | 1.6 ± 0.4 µM | 11 ± 2 µM | – | –
21 | Cc1cccc(CNc2nc(Nc3cccc(Cl)c3)nc3ccccc23)c1 [III-11] | 2.3 ± 0.6 µM | 9.7 ± 2.7 µM | – | –
22 | Clc1cccc(CNc2nc(Nc3cccc(Cl)c3)nc3ccccc23)c1 [III-12] | 5 ± 1.2 µM | 15 ± 4 µM | – | –

Row | Compound | IC50 (p97; [2]) | IC50 [1, 3] | IC50 (p97; p97 ATPase assay) | IC50 [1, 4]
23 | Fc1cccc(CNc2nc(Nc3cccc(Cl)c3)nc3ccccc23)c1 [III-13] | 1.2 ± 0.2 µM | 6.3 ± 1.7 µM | – | –
24 | Clc1cccc(Nc2nc(NCc3cccc(Br)c3)c3ccccc3n2)c1 [III-14] | 3.7 ± 0.9 µM | 9.9 ± 2 µM | – | –
25 | COc1cccc(CNc2nc(Nc3cccc(Cl)c3)nc3ccccc23)c1 [III-15] | 1 ± 0.1 µM | 9.9 ± 1.6 µM | – | –
26 | Clc1ccc(CNc2nc(NCc3ccccc3)c3ccccc3n2)cc1 [IV-2] | 3.1 ± 0.2 µM | 2.1 ± 0.4 µM | – | –
27 | Fc1ccc(CNc2nc(NCc3ccccc3)c3ccccc3n2)cc1 [IV-3] | 2.6 ± 0.2 µM | 3.4 ± 0.5 µM | – | –
28 | Brc1ccc(CNc2nc(NCc3ccccc3)c3ccccc3n2)cc1 [IV-4] | 4.3 ± 0.9 µM | 3.9 ± 0.3 µM | – | –
29 | COc1ccc(CNc2nc(NCc3ccccc3)c3ccccc3n2)cc1 [IV-5] | 3 ± 0.5 µM | 1.3 ± 0.2 µM | – | –
30 | Cc1ccccc1CNc1nc(NCc2ccccc2)c2ccccc2n1 [IV-6] | 2.7 ± 0.5 µM | 1.9 ± 0.4 µM | – | –
31 | Clc1ccccc1CNc1nc(NCc2ccccc2)c2ccccc2n1 [IV-7] | 5.3 ± 1.2 µM | 2.9 ± 0.9 µM | – | –
32 | Fc1ccccc1CNc1nc(NCc2ccccc2)c2ccccc2n1 [IV-8] | 2.9 ± 0.4 µM | 2.8 ± 0.4 µM | – | –
33 | Brc1ccccc1CNc1nc(NCc2ccccc2)c2ccccc2n1 [IV-9] | 2 ± 0.3 µM | 3.8 ± 0.7 µM | – | –
34 | COc1ccccc1CNc1nc(NCc2ccccc2)c2ccccc2n1 [IV-10] | 3.6 ± 0.8 µM | 1.9 ± 0.2 µM | – | –
35 | Cc1cccc(CNc2nc(NCc3ccccc3)c3ccccc3n2)c1 [IV-11] | 2.3 ± 0.4 µM | 2.5 ± 0.5 µM | – | –
36 | Clc1cccc(CNc2nc(NCc3ccccc3)c3ccccc3n2)c1 [IV-12] | 2.7 ± 0.1 µM | 2.5 ± 0.4 µM | – | –
37 | Clc1ccc(CNc2nc(NCc3ccccc3)c3ccccc3n2)cc1Cl [IV-17] | 3 ± 0.5 µM | 1.9 ± 0.2 µM | – | –
38 | FC(F)(F)c1cc(CNc2nc(NCc3ccccc3)c3ccccc3n2)ccc1Cl [IV-18] | 4.7 ± 1 µM | 2.2 ± 0.4 µM | – | –
39 | c1ccc(CNc2nc(N3CCOc4ccccc43)nc3ccsc23)cc1 [IX] | 0.4 ± 0.1 µM | 6.4 ± 1 µM | – | –
40 | Brc1cccc2c(NCc3ccccc3)nc(NCc3ccccc3)nc12 [V1-9] | 3.3 ± 0.9 µM | 30 ± 2 µM | – | –
41 | COc1c(Cl)cccc1Nc1nc(NCc2ccccc2)c2ccccc2n1 [V-1] | 0.9 ± 0.2 µM | 6.3 ± 1.7 µM | – | –
42 | Cc1c(F)cccc1Nc1nc(NCc2ccccc2)c2ccccc2n1 [V-2] | 0.9 ± 0.1 µM | 3.7 ± 0.8 µM | – | –
43 | Cc1cc(F)cc(Nc2nc(NCc3ccccc3)c3ccccc3n2)c1 [V-3] | 0.7 ± 0.05 µM | 5.4 ± 0.8 µM | – | –
44 | COc1c(F)cccc1Nc1nc(NCc2ccccc2)c2ccccc2n1 [V-4] | 1.7 ± 0.5 µM | 12 ± 3 µM | – | –

Row | Compound | IC50 (p97; [2]) | IC50 [1, 3] | IC50 (p97; p97 ATPase assay) | IC50 [1, 4]
45 | Cc1c(Cl)cccc1Nc1nc(NCc2ccccc2)c2ccccc2n1 [V-5] | 0.7 ± 0.1 µM | 5.5 ± 1 µM | – | –
46 | Cc1ccc(F)cc1Nc1nc(NCc2ccccc2)c2ccccc2n1 [V-6] | 0.8 ± 0.1 µM | 5 ± 1 µM | – | –
47 | Cc1ccc(Nc2nc(NCc3ccccc3)c3ccccc3n2)cc1F [V-7] | 0.9 ± 0.2 µM | 5.2 ± 1.2 µM | – | –
48 | COc1ccc(Nc2nc(NCc3ccccc3)c3ccccc3n2)cc1F [V-8] | 0.9 ± 0.1 µM | 4.7 ± 0.8 µM | – | –
49 | Cc1ccc(Cl)cc1Nc1nc(NCc2ccccc2)c2ccccc2n1 [V-9] | 0.8 ± 0.07 µM | 7 ± 1.5 µM | – | –
50 | COc1ccc(Cl)cc1Nc1nc(NCc2ccccc2)c2ccccc2n1 [V-10] | 1.1 ± 0.2 µM | 16 ± 6 µM | – | –
51 | COc1ccc(F)cc1Nc1nc(NCc2ccccc2)c2ccccc2n1 [V-11] | 6.7 ± 3 µM | 9.3 ± 1 µM | – | –
52 | Clc1cccc2nc(NCc3ccccc3)nc(NCc3ccccc3)c12 [VI-1] | 2.2 ± 0.7 µM | 16 ± 2 µM | – | –
53 | Fc1cccc2nc(NCc3ccccc3)nc(NCc3ccccc3)c12 [VI-2] | 1.2 ± 0.3 µM | 13 ± 2 µM | – | –
54 | Clc1ccc2nc(NCc3ccccc3)nc(NCc3ccccc3)c2c1 [VI-3] | 1.6 ± 0.4 µM | 6.6 ± 0.9 µM | – | –
55 | COc1cc2nc(NCc3ccccc3)nc(NCc3ccccc3)c2cc1OC [VI-4] | 4.4 ± 1.8 µM | 8.8 ± 1.5 µM | – | –
56 | COc1cccc2c(NCc3ccccc3)nc(NCc3ccccc3)nc12 [VI-5, N2,N4-dibenzyl-8-methoxyquinazoline-2,4-diamine] | 0.6 ± 0.06 µM | 10 ± 2 µM | – | –
57 | Cc1ccc2c(NCc3ccccc3)nc(NCc3ccccc3)nc2c1 [VI-6] | 2.2 ± 0.4 µM | 6.1 ± 1.6 µM | – | –
58 | FC(F)(F)c1ccc2c(NCc3ccccc3)nc(NCc3ccccc3)nc2c1 [VI-7] | 9.1 ± 2 µM | 19 ± 1 µM | – | –
59 | N#Cc1ccc2c(NCc3ccccc3)nc(NCc3ccccc3)nc2c1 [VI-8] | – | – | 25 ± 10 µM | 21 ± 3 µM
60 | Fc1cccc2c(NCc3ccccc3)nc(NCc3ccccc3)nc12 [VI-10] | 3.1 ± 0.5 µM | 18 ± 2 µM | – | –
61 | Fc1ccc2c(NCc3ccccc3)nc(NCc3ccccc3)nc2c1 [VI-11] | 2.6 ± 0.5 µM | 6.1 ± 0.8 µM | – | –
62 | Clc1ccc2c(NCc3ccccc3)nc(NCc3ccccc3)nc2c1 [VI-12] | 5.5 ± 0.9 µM | 6.3 ± 0.9 µM | – | –
63 | COc1ccc2c(NCc3ccccc3)nc(NCc3ccccc3)nc2c1 [VI-13] | 5.7 ± 1 µM | 42 ± 6 µM | – | –
64 | COc1ccc2nc(NCc3ccccc3)nc(NCc3ccccc3)c2c1 [VI-14] | 7.5 ± 1.1 µM | 8.6 ± 1.7 µM | – | –
65 | Fc1ccc2nc(NCc3ccccc3)nc(NCc3ccccc3)c2c1 [VI-15] | 4.7 ± 0.4 µM | 8.2 ± 1.5 µM | – | –
